# Assay results taken from patent publication US7449453B2, “Compositions of ezetimibe and methods for the treatment of cholesterol-associated benign and malignant tumors” (Karykion Inc., priority 2002, dated 2008).
# Entries after “also recorded” stand apart in the source; their conditions may differ.
# Assays:
# [1] = cited from earlier work; for serum cholesterol levels: mice fed a low cholesterol diet; for elevated serum cholesterol levels: mice, induced by high cholesterol diets
# [2] = system: LNCaP cells transfected with HB-EGF; assay: SCID mice transplanted subcutaneously with LNCaP cells transfected with HB-EGF, high cholesterol diet; assay type: in vivo; settings: for tumor growth and progression vs untreated controls: 10 mg/kg body weight in diet, started 2 weeks after implantation, 6-12 weeks of treatment, intact and castrated animals; for tumor volumes: progression and growth of the implanted tumors vs untreated controls: 30 mg/kg of body weight, started 2 weeks after tumor implantation, after 12 weeks, high cholesterol diet
# Excerpt: Prostate cancer is a leading cause of mortality in males in North America with between 30,000 to 40,000 deaths per year in the United States. While chemotherapy has not been very efficacious in the treatment of prostate cancer, an alternative approach has been to target prostate cancer cell survival pathways, particularly the PI3 kinase/Akt/PTEN signaling axis, which has been identified as an important cell survival mechanism in PCa and other cancers. Recently it has been determined that membrane cholesterol is an important component of a mechanism that transfers survival signals from the cell exterior to the Akt1 serine-threonine kinase. It has also been shown recently that elevated serum cholesterol accelerates the growth, lowers the extent of cellular apotosis, and increases the level of Akt activation in prostate tumors within a murine prostate cancer model. Findings indicate that cholesterol plays a critical role in the ability of prostate cancer cells to resist apoptotic stimuli. The role of cholesterol in prostate cancer cell survival is so critical that drugs that bind cholesterol (polyene macrolides), extract cholesterol from membranes (cyclodextrin) or block cholesterol synthesis (statins) all alter essential membranes (lipid rafts) and reduce their capacity to regulate cell signaling. Cholesterol plays a crucial role in specifically regulating prostate cancer growth and survival. In these studies a unique prostate murine model system is used. This model features the human prostate adenocarcinoma cell line, LNCaP transfected with HB-EGF. LNCAP cells resemble typical prostate tumor cells in their general morphology, production of PSA and PTEN null status. Stable transfection with HB-EGF, a physiologically relevant EGFR ligand that originates in the prostatic stroma, permits LNCaP cells to form tumors in vivo in an androgen—independent manner. Subcutaneous implantation of these LNCaP cells into 4 quadrants of SCID mice results in rapid tumor growth in intact and castrated mice over an eight week period. […] Mice placed on a high cholesterol diet 4 weeks prior to tumor implantation are started on ezetimibe and SCH 48461 @ 30 mg/kg of body weight 2 weeks after tumor implantation.
# Subcutaneous implantations of LNCaP cells into 4 quadrants of SCID mice (2×10^6 cells in 150 ul Matrigel per injection site) results in rapid tumor growth in intact and castrated hosts on a high cholesterol diet over an 8 week period. Two weeks after tumor cell implantation, the animals are given ezetimibe in their diet at 10 mg/kg body weight.
# [3] = system: benign prostatic hyperplasia; settings: controlled double blind study; cited from earlier work
# [4] = system: BIO 87.20 male Syrian hamster; assay: Ezetimibe treatment of BIO 87.20 male Syrian hamsters that develop spontaneous cystic prostatic hypertrophy and other tumors; assay type: in vivo
# Excerpt: The BIO 87.20 male Syrian hamster is a well-known inbred line that develops, spontaneously, an age-dependent and genetic related cystic prostatic hypertrophy and is recognized in the art as an excellent model for human prostate disease. See, e.g., Homburger et al., 1970, Proc. Soc. Exptl. Biol. Med., 134:284-286; Homburger, 1972, Health Lab Sci., 9:103-111; Wang et al., 1976, Invest. Urol., 14:66-71. The BIO 87.20 strain of hamster develops multiple tumors after 12 months of age.
# The stromal hyperplasia and changes in the epithelial cells are also observed upon microscopic examination. […] The BIO 87.20 and BIO 1.5 strains of male Syrian hamster are employed in the ezetimibe studies presented herein. […] Schaffner et al., Lipids 16:835-840 (1981). The defect in cholesterol synthesis and the development of cystic prostatic hypertrophy in the BIO 87.20 male hamster is related.
# 16 BIO 1.5 and 48 BIO 87.20 male Syrian hamsters are obtained from Bio Breeders, Inc. Boston, Mass. Among these animals, 8 BIO 1.5 and 24 BIO 87.20 hamsters are 6 months of age, while the remainder, consisting of […] and 24 BIO 87.20 hamsters, are 12 months of age. The animals are housed in individual cages. All animals are given water ad libitum and are housed under automatic regime of 12 hours artificial light and 12 hours darkness. Food consumption is be monitored to ensure equivalent intake in all animals. The drug, ezetimibe, is powdered and mixed into ground PURINA® hamster chow. Concentrations of ezetimibe, in the food, is adjusted according to quantity of food intake per hamster per day and expressed as average μg of ezetimibe per kg body weight per day.
# The animals are divided into 8 experimental groups containing 8 animals each. The groups may be characterized as follows:
# Control BIO 1.5 and control and treated BIO 87.20 male Syrian hamsters, both 6 and 12 months of age, are used as follows. In the treated group of BIO 87.20 male Syrian hamsters, ezetimibe is administered as a powder in the diet. Treatment with doses of ezetimibe of 100 and 1000 micrograms per kilogram body weight of the BIO 87.20 animals is continued for 6 months. […] After 6 months of treatment the animals are sacrificed and the prostate glands excised, weighed and preserved for histopathological examination.
# [5] = system: tumor initiation and progression; settings: long-term rat studies; cited from earlier work
compound,measurement,setting,value
"O=C1N(c2ccc(F)cc2)[C@H](c2ccc(O)cc2)C12CCC(O)(c1ccc(Cl)cc1)CC2 (single isomer, unassigned; (+)) [SCH 58053, (+)-7-(4-chlorophenyl)-2-(4-flourophenyl)-7-hydroxy-3R-(4-hydroxyphenyl)-2-azaspiro[3,5]nonan-1-one]",serum cholesterol levels,[1],do not generally affect serum cholesterol levels
same,elevated serum cholesterol levels,[1],do lower elevated serum cholesterol levels
COc1ccc([C@@H]2[C@@H](CCCc3ccccc3)C(=O)N2c2ccc(OC)cc2)cc1 [SCH 48461],serum cholesterol levels,[1],do not generally affect serum cholesterol levels
same,elevated serum cholesterol levels,[1],do lower elevated serum cholesterol levels
same,tumor growth and progression vs untreated controls,[2],significant inhibition of tumor growth and progression
same,tumor volumes: progression and growth of the implanted tumors vs untreated controls,[2],significantly inhibits the progression and growth of the implanted tumors
CC[C@H](CC[C@@H](C)[C@H]1CC[C@H]2[C@@H]3CC=C4C[C@@H](O)CC[C@]4(C)[C@H]3CC[C@]12C)C(C)C [beta-sitosterol],effectiveness in the treatment of benign prostatic hyperplasia,[3],effective
"O=C1[C@H](CC[C@H](O)c2ccc(F)cc2)[C@@H](c2ccc(O)cc2)N1c1ccc(F)cc1 [ezetimibe, 1-(4-fluorophenyl)-(3R)-[3-(4-fluorophenyl)-(3S)-hydroxypropyl]-(45)-(4-hydroxyphenyl)-2-azetidinone]",effect of higher dose on inhibition and reversal of the prostate enlargement,[4]; 1000 μg/kg body weight,greater effect on the inhibition and reversal of the prostate enlargement
same,"inhibitory effect on size increase of the prostate gland, higher vs lower dose","[4]; 1000 μg/kg body weight, beginning at 6 months of age, 6 months",greater inhibitory effect on size increase of the prostate gland
same,"level of effect on ventral prostate weights, higher vs lower dose","[4]; 1000 vs 100 μg/kg body weight, beginning at 12 months of age, 6 months",significantly greater at the higher dosage
same,tumors at the end of the experiment vs BIO 87.20 control animals of the same age,[4]; as referred to Example II,no tumors
same,cystic prostatic hypertrophy on histopathological examination vs untreated controls,"[4]; beginning at 6 months of age, after 6 months of treatment",marked reduction in the cystic prostatic hypertrophy
same,established prostatic enlargement (reversal),"[4]; beginning at 12 months of age, enlargement already present",reverses the prostatic enlargement
same,miscellaneous tumors other than that of the prostate gland,"[4]; oral 1000 μg/kg body weight, beginning at 12 months of age, 6 months",very few tumors are observed
same,development of cystic prostatic hypertrophy,[4]; oral route,inhibits the development of cystic prostatic hypertrophy
same,other cholesterol-associated tumor formation,"[4]; summary statement, dose not given",inhibits other cholesterol-associated tumor formation
same,histology of the prostates on histopathological examination,[4]; treated BIO 87.20 compared with BIO 1.5 prostate sections,more normal histology
same,prostatic enlargement / prostate gland volume vs untreated control BIO 87.20,"[4]; treatment beginning at 6 months of age, 6 months, 100 and 1000 μg/kg body weight in diet",inhibits prostatic enlargement; also recorded: marked inhibitory effect on the prostate gland volume
same,prostatic mass or volume / excised ventral prostate weights vs untreated BIO 87.20 controls,"[4]; treatment beginning at 12 months of age, 6 months, 100 and 1000 μg/kg body weight",reduces the prostatic mass or volume; also recorded: markedly reduced
same,serum cholesterol levels,[1],do not generally affect serum cholesterol levels
same,elevated serum cholesterol levels,[1],do lower elevated serum cholesterol levels
same,tumor growth and progression vs untreated controls,[2],marked inhibition of tumor growth and progression
same,tumor volumes: progression and growth of the implanted tumors vs untreated controls,[2],significantly inhibits the progression and growth of the implanted tumors
candicidin,tumor initiation and progression vs untreated controls,[5],inhibit tumor initiation and progression
